System: HCT-116
Assay: Induction of apoptosis in human HCT-116 cells assessed as necrotic cells at 10 uM measured after 48 hrs by Annexin V-FITC/PI staining based flow cytometry method (reference value: 2.2%)
Type: functional

CCC(=O)Nc1cccc(Oc2nc(Nc3ccc(N4CCN(C)CC4)cc3)ncc2Cl)c1
Activity: 4.1%

From ChEMBL document CHEMBL4813921, “Optimization of WZ4003 as NUAK inhibitors against human colorectal cancer” (Eur J Med Chem, 2021)
